Experimental data published in paper PMC9827845, “Active Pharmaceutical Ingredient Uptake by Zebrafish (Danio rerio) Oct2 (slc22a2) Transporter Expressed in Xenopus laevis Oocytes” (Environmental Toxicology and Chemistry, 2022).

Key:
Oct2 (slc22a2) [1] = target: T1, Oct2 (slc22a2) (Danio rerio, UniProt Q7T2C0); assay: radiolabelled uptake in Xenopus oocytes expressing zebrafish oct2 versus sham; assay type: cell-based
T1 construct: complete Danio rerio slc22a2 cDNA clone (zgc:64076; IRBOp991A024D; oct2)
T1 sequence (Q7T2C0 1-562): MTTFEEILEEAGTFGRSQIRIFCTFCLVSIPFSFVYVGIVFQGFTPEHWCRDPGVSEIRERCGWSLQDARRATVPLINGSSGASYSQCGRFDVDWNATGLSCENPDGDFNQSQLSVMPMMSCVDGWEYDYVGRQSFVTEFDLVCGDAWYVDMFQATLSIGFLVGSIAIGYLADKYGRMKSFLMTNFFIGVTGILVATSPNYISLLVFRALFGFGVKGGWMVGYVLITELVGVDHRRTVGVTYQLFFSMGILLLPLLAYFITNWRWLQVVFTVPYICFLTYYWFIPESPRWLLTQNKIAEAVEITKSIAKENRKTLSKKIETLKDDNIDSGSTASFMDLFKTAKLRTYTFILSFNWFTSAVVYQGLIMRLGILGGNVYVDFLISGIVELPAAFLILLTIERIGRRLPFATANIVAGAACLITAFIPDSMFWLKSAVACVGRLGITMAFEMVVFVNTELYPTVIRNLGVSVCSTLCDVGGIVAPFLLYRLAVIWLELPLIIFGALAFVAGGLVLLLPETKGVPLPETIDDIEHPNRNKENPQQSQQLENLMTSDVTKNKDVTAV

Oct2 (slc22a2) [2] = target: T1, Oct2 (slc22a2); assay: inhibition of […] TEA uptake at […] in Xenopus oocytes expressing zebrafish oct2; assay type: cell-based
[3] = substrate: CNC(=C[N+](=O)[O-])NCCSCc1ccc(CN(C)C)o1; assay: cells, lysate or membranes
[4] = substrate: CC(C)NCC(O)COc1cccc2ccccc12; assay: cells, lysate or membranes

CC[N+](CC)(CC)CC [TEA, tetraethylammonium]
radiolabelled uptake in Xenopus oocytes expressing zebrafish oct2 versus sham (Oct2 (slc22a2) [1]): zebrafish oct2 when expressed in Xenopus oocytes can facilitate the transport of ranitidine, propranolol, and TEA

NC12CC3CC(CC(C3)C1)C2 [amantadine]
inhibition of 200 μM TEA uptake at 2 mM in Xenopus oocytes expressing zebrafish (Oct2 (slc22a2) [2]): Uptake of tetraethylammonium (TEA) was inhibited by propranolol, amantadine, and cimetidine

B1: Oct2 (slc22a2) (Danio rerio) (protein)
chain: MTTFEEILEEAGTFGRSQIRIFCTFCLVSIPFSFVYVGIVFQGFTPEHWCRDPGVSEIRERCGWSLQDARRATVPLINGSSGASYSQCGRFDVDWNATGLSCENPDGDFNQSQLSVMPMMSCVDGWEYDYVGRQSFVTEFDLVCGDAWYVDMFQATLSIGFLVGSIAIGYLADKYGRMKSFLMTNFFIGVTGILVATSPNYISLLVFRALFGFGVKGGWMVGYVLITELVGVDHRRTVGVTYQLFFSMGILLLPLLAYFITNWRWLQVVFTVPYICFLTYYWFIPESPRWLLTQNKIAEAVEITKSIAKENRKTLSKKIETLKDDNIDSGSTASFMDLFKTAKLRTYTFILSFNWFTSAVVYQGLIMRLGILGGNVYVDFLISGIVELPAAFLILLTIERIGRRLPFATANIVAGAACLITAFIPDSMFWLKSAVACVGRLGITMAFEMVVFVNTELYPTVIRNLGVSVCSTLCDVGGIVAPFLLYRLAVIWLELPLIIFGALAFVAGGLVLLLPETKGVPLPETIDDIEHPNRNKENPQQSQQLENLMTSDVTKNKDVTAV
Km [3]: 246.1 µM
Km [4]: 408.9 µM
